Molecular target: T1, Thermus aquaticus (Taq) DNA polymerase variant G46D F667Y (Thermus aquaticus, UniProt P19821, F667Y/G46D)
T1 construct: Expression vector pRDA3-2 contains the full-length Taq DNA polymerase gene; made in house; host or cells: E. coli DG116 (stated generally for the polymerases of the invention)
Assay: Limiting template primer extension competition assay (ddNTP incorporation), G46D F667Y Taq
Type: biochemical
Procedure: The ability of the enzymes of this invention to efficiently incorporate nucleotides labeled with fluorescein family dyes is measured by ddNTP incorporation assays. One such assay is a primer extension competition assay conducted under conditions of limiting template. In this assay, a primer DG48 (5′-[…]), (SEQ ID NO: 11), bound to M13 mp18 template (Innis et al., 1988, Proc. Natl. Acad. Sci. USA 85:9436) is extended in the presence of [α-^33P]dCTP and excess enzyme with various levels of a fluorescently labeled ddNTP, Zowie-ddCTP. Because the incorporation of a ddCTP residue terminates the extension reaction, the more readily a DNA polymerase incorporates a ddCTP into an extended primer, the less [α-^33P]dCTP can be incorporated. Thus, as the efficiency of fluorescently labeled ddCTP incorporation increases, the extent of inhibition of DNA synthesis is increased. The reactions were also performed with various levels of an unlabeled ddCTP. […]
The relative abilities of G46D F667Y Taq, G46D F667Y E681K Taq and F730Y Tma30 DNA polymerases to incorporate a fluorescein dye family-labeled ddCTP were compared by use of a limiting template, primer extension competition assay. […] In this competition assay, because the incorporation of a ddCTP terminates the extension reaction, the more readily the polymerase incorporates a ddCTP into an extended primer, the less [α-^33P]dCTP can be incorporated. […]

T1 sequence (P19821 whole entry G46D/F667Y): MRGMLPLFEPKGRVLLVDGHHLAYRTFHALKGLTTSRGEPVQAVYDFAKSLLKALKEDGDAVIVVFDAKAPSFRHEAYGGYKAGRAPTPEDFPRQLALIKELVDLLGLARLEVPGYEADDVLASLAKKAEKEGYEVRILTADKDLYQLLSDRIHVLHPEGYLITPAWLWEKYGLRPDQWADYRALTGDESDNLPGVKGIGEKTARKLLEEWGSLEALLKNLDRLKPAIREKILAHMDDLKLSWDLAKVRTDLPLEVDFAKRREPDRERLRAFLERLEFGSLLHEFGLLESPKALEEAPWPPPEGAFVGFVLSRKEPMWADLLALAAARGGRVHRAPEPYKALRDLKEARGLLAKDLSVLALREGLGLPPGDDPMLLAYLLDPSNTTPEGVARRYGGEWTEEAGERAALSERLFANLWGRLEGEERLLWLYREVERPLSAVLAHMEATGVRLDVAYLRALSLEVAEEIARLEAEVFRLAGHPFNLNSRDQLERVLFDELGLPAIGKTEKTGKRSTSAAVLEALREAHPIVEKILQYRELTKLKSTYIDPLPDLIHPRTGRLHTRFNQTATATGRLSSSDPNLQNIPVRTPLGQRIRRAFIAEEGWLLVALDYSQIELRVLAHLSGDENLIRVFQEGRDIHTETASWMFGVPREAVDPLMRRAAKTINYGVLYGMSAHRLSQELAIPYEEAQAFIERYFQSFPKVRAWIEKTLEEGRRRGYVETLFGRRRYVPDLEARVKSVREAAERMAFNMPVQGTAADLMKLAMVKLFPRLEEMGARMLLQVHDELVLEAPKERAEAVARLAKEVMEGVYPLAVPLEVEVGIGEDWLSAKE

Structure (SMILES): Nc1ccn([C@H]2CC[C@@H](COP(=O)(O)OP(=O)(O)OP(=O)(O)O)O2)c(=O)n1 [ddCTP]
- IC50: 56 nM
